In brackets after ≈: the same amount, converted by molar mass. Several values for one entry are separate records, joined by “and”; a condition that tells them apart may be missing. Equal entries are not always repeated. Entries after “also recorded” stand apart in the source; their conditions may differ.
Key:
[1] = test system: Mtb clinical isolate 12611; assay: microbe, parasite or virus in culture; assay type: cell-based; conditions: Mycobacterium tuberculosis
[2] = test system: Mtb clinical isolate 14231; assay: microbe, parasite or virus in culture; assay type: cell-based; conditions: Mycobacterium tuberculosis
M. bovis BCG = assay type: cell-based
WT Rv0183 (BCG_0220) = target: T1, WT Rv0183 (BCG_0220) (Mycobacterium tuberculosis, UniProt O07427); assay type: biochemical; conditions: 10 μM WT Rv0183, 5 μg compound, 37 °C, 1 h
T1 construct: poly-histidine (pET28a vector-encoded) (N); made in house; host or cells: E. coli SHuffle T7 (K12), pET28a

Rv0183-VAAQD137D = Rv0183-VAAQD137D (Mycobacterium tuberculosis, UniProt O07427, DEL137-140); assay type: biochemical, M. bovis BCG
Rv0183-S172P = Rv0183-S172P (Mycobacterium tuberculosis, UniProt O07427, S172P); assay type: biochemical, M. bovis BCG
[3] = test system: M. bovis BCG HTB-04 mutant 2 (BCG_0220-S172P); assay type: cell-based

Which results are given for `O=C(OCCCCCl)c1cc(O)c2c(c1)C(=O)c1cccc(O)c1C2=O` [HTB-03]?
MIC [1]: 2.64 µM (≈ 0.989 µg/mL); MIC [2]: 2.4 µM (≈ 0.899 µg/mL); frequency of resistance (M. bovis BCG): 83 × 10^-8 and 100 × 10^-8; enzyme activity on compound (TLC) (WT Rv0183 (BCG_0220)): converted to rhein; enzyme activity on compound (TLC) (Rv0183-VAAQD137D): minimal; enzyme activity on compound (TLC) (Rv0183-S172P): no activity

For `CC(=O)Oc1cccc2c1C(=O)c1c(OC(C)=O)cc(C(=O)OCCCCCl)cc1C2=O` [HTB-04], which MIC [1] is on record?
Its MIC is 3.66 µM (≈ 1.68 µg/mL).

And the MIC [2]?
The MIC was 2.04 µM (≈ 0.936 µg/mL).

What about the frequency of resistance (M. bovis BCG) of the same compound?
The frequency of resistance was 85 × 10^-8.

What about the IC50 [3] of the same compound?
Its IC50 is 6.23 µM and 3.51 µM.

What about the “enzyme activity on compound (TLC)” value (WT Rv0183 (BCG_0220)) of the same compound?
Its value is “partially hydrolyzed to rhein; also recorded: inconclusive”.

How did the MIC [1] turn out when `NNC(=O)c1ccncc1` [INH, isoniazid, reference compound] was run?
Its MIC is 142 µM (≈ 19.5 µg/mL).

And the MIC [2]?
The MIC was over 292 µM.

`O=C(O)c1cc(O)c2c(c1)C(=O)c1cccc(O)c1C2=O` [Rhein, rhein] was tested. Which “enzyme activity on compound (TLC)” value (WT Rv0183 (BCG_0220)) did it give?
Its value is “no apparent activity”.

And the “enzyme activity on compound (TLC)” value (Rv0183-VAAQD137D)?
The value was “no apparent activity”.

And the “enzyme activity on compound (TLC)” value (Rv0183-S172P)?
The value was “no apparent activity”.
